Experimental findings from article PMC6770089, “Interaction Mechanism of Flavonoids and α-Glucosidase: Experimental and Molecular Modelling Studies” (Foods, 2019) are described below.

≈ marks a conversion by molar mass, not a printed value.

For orientation: IC50 means the concentration that gives 50% inhibition. Low readings indicate higher potency, high ones lower potency.

The first assay has as its system T1, α-glucosidase.
T1 construct: gene MAL12; docking used PDB 3A4A (isomaltase IMA1), not the tested protein
In words: intrinsic fluorescence quenching, excitation […] nm. As to conditions: 298 K; double-log; n = 0.9843. The assay is classed as binding, Saccharomyces cerevisiae.
For the compound `O=c1c(O)c(-c2cc(O)c(O)c(O)c2)oc2cc(O)cc(O)c12` [compound 1, myricetin], the “Ka” value is 77786 L/mol.

The same assay, now with this note: 298 K; double-log; n = 1.0572.
Turning to `O=C1c2c(O)cc(O)cc2O[C@H](c2cc(O)c(O)c(O)c2)[C@H]1O` [compound 8, dihydromyricetin], the “Ka” value is 57637 L/mol.

For the next assay, the target named is T1, α-glucosidase. In words: pNP-G hydrolysis, absorbance […] nm. The assay is classed as biochemical, Saccharomyces cerevisiae. The settings on record: pNP-G (1 mM stock, 1 mL added), 0.1 M phosphate pH 6.8, 37 °C, 10 min preincubation.
As to `COc1ccc([C@@H]2CC(=O)c3c(O)cc(O)cc3O2)cc1O` [compound 11, hesperetin], the IC50 was determined as 286.60 µg/mL (≈ 948 µM).

With `O=C(/C=C/c1ccc(O)cc1)c1ccc(O)cc1O` [compound 6, isoliquiritigenin], the IC50 amounted to 36.29 µg/mL (≈ 142 µM).

Regarding `O=C(/C=C/c1ccccc1)c1ccc(O)cc1` [compound 10, 4′-hydroxychalcone], the IC50 amounted to 199.10 µg/mL (≈ 888 µM).

For the compound `O=c1cc(-c2ccccc2)oc2cc(O)cc(O)c12` [compound 7, chrysin], the IC50 was determined as 70.07 µg/mL (≈ 276 µM).

In the case of `C[C@@H]1O[C@@H](O[C@H]2[C@H](Oc3cc(O)c4c(c3)O[C@H](c3ccc(O)cc3)CC4=O)O[C@H](CO)[C@@H](O)[C@@H]2O)[C@H](O)[C@H](O)[C@H]1O` [compound 12, naringin], the IC50 was above 500 µg/mL.

On to `O=c1cc(-c2ccccc2)oc2cc(O)c(O)c(O)c12` [compound 4, baicalein], for which the IC50 is 6.75 µg/mL (≈ 25 µM).

For `COc1ccc([C@@H]2CC(=O)c3c(O)cc(O[C@@H]4O[C@H](CO[C@@H]5O[C@@H](C)[C@H](O)[C@@H](O)[C@H]5O)[C@@H](O)[C@H](O)[C@H]4O)cc3O2)cc1O` [compound 13, hesperidin], the IC50 was above 500 µg/mL.

The compound `O=c1cc(-c2ccc(O)c(O)c2)oc2cc(O)cc(O)c12` [compound 5, luteolin] displayed an IC50 of 27.22 µg/mL (≈ 95.1 µM).

Compound `O=C1c2c(O)cc(O)cc2O[C@H](c2cc(O)c(O)c(O)c2)[C@H]1O` [compound 8, dihydromyricetin] returned an IC50 of 85.95 µg/mL (≈ 268 µM).

Take `O=C(/C=C/c1ccc(O)cc1)c1ccccc1` [compound 9, 4-hydroxychalcone]: the IC50 turned out to be 123.04 µg/mL (≈ 549 µM).

With `O=c1c(O)c(-c2ccc(O)c(O)c2)oc2cc(O)ccc12` [compound 2, fisetin], the IC50 amounted to 5.50 µg/mL (≈ 19.2 µM).

Take `O=c1c(O)c(-c2cc(O)c(O)c(O)c2)oc2cc(O)cc(O)c12` [compound 1, myricetin]: the IC50 was found to be 2.09 µg/mL (≈ 6.57 µM).

As to `O=C(O)[C@H]1O[C@@H](Oc2cc3oc(-c4ccccc4)cc(=O)c3c(O)c2O)[C@H](O)[C@@H](O)[C@@H]1O` [compound 14, baicalin], the IC50 is above 500 µg/mL.
